Measured values: patent US20220211630A1, “SOLID NANOPARTICLE FORMULATION OF WATER INSOLUBLE PHARMACEUTICAL SUBSTANCES WITH REDUCED OSTWALD RIPENING AND IMMEDIATE DRUG RELEASE FOLLOWING INTRAVENOUS ADMINISTRATION” (priority 2019, published 2022)
In brackets after ≈: the same amount, converted by molar mass. Where two headings read alike, the source gives them in different places.

Tests used:
[1] = Drug solubility in supernatant of reconstituted suspension after ultracentrifugation (HPLC); type: physicochemical; details: room temperature
Description: The quantities of docetaxel, rapamycin and 17-AAG and human albumin in the supernatant were measured by high performance liquid chromatography (HPLC) and the results are summarized in Table 9.
The quantities of ixabepilone and rapamycin in the supernatant were measured by high performance liquid chromatography (HPLC) and the results are summarized in Table 18.

[2] = cited from earlier work
[3] = oral, human gastrointestinal tract; cited from earlier work
human CB1 receptors = human CB1 receptors (Homo sapiens, UniProt P21554); details: read-out: Affinity; cited from earlier work
human CB2 receptors = human CB2 receptors (Homo sapiens, UniProt P34972); details: read-out: Affinity; cited from earlier work
[4] = LBI-1103 (Lot RAD002) reconstituted suspension (5 mg/mL Docetaxel; 5 mg/mL Rapamycin and 10 mg/mL 17-AAG), 87,000 rpm 1 hour
[5] = LBI-0728 (Lot CRX001) reconstituted suspension (2 mg/mL Ixabepilone and 5 mg/mL Rapamycin), 87,000 rpm 1 hour

Chain of human CB2 receptors (P34972 whole entry): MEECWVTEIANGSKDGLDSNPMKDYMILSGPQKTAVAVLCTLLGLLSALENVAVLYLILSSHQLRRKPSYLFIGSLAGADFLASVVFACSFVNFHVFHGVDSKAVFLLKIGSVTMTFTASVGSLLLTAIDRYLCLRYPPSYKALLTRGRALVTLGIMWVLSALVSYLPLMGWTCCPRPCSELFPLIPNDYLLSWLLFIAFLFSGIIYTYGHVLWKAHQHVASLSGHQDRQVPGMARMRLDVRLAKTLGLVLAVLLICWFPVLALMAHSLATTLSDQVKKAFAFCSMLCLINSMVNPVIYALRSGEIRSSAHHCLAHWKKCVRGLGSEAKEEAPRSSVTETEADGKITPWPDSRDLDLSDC
Chain of human CB1 receptors (P21554 whole entry): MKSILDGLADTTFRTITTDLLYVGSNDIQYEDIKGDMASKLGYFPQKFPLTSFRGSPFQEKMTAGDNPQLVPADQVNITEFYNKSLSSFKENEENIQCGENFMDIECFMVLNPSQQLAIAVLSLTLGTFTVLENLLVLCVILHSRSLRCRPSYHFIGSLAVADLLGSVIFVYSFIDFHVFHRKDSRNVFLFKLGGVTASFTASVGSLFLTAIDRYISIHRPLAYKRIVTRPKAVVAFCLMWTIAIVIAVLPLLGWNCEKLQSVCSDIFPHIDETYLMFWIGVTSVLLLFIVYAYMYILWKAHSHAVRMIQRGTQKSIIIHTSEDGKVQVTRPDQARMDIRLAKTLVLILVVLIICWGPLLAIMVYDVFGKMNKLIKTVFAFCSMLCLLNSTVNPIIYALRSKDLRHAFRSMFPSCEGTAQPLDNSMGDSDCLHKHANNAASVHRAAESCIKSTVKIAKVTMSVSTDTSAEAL

Compound | solubility [1, 4] [µg/mL] | Solubility in water [2] | other results
C=CCNC1=C2C[C@@H](C)C[C@H](OC)[C@H](O)[C@@H](C)/C=C(\C)[C@H](OC(N)=O)[C@@H](OC)/C=C\C=C(/C)C(=O)NC(=CC1=O)C2=O [Example 17AAG, 17-allylaminogeldanamycin] | 108 | – | –
CC(=O)O[C@H]1C(=O)[C@@]2(C)[C@H]([C@H](OC(=O)c3ccccc3)[C@]3(O)C[C@H](OC(=O)[C@H](O)[C@@H](NC(=O)c4ccccc4)c4ccccc4)C(C)=C1C3(C)C)[C@]1(OC(C)=O)CO[C@@H]1C[C@@H]2O [Paclitaxel] | – | about 0.4 mg/L | Drug Solubility in Supernatant ([1]; LBI-0609 (Lot CEP002) reconstituted suspension (Everolimus and 5 mg/mL Paclitaxel), 87,000 rpm 1 hour): 82 µg/mL
CO[C@H]1C[C@@H]2CC[C@@H](C)[C@@](O)(O2)C(=O)C(=O)N2CCCC[C@H]2C(=O)O[C@H]([C@H](C)C[C@@H]2CC[C@@H](OCCO)[C@H](OC)C2)CC(=O)[C@H](C)/C=C(\C)[C@@H](O)[C@@H](OC)C(=O)[C@H](C)C[C@H](C)/C=C/C=C/C=C/1C [Everolimus, 40-O-(2-Hydroxy)ethyl rapamycin] | – | – | solubility ([1]; LBI-0609 (Lot CEP002) reconstituted suspension (X mg/mL Everolimus and 5 mg/mL Paclitaxel), 87,000 rpm 1 hour): 14 µg/mL (≈ 14.6 µM)
CO[C@H]1C[C@@H]2CC[C@@H](C)[C@@](O)(O2)C(=O)C(=O)N2CCCC[C@H]2C(=O)O[C@H]([C@H](C)C[C@@H]2CC[C@@H](O)[C@H](OC)C2)CC(=O)[C@H](C)/C=C(\C)[C@@H](O)[C@@H](OC)C(=O)[C@H](C)C[C@H](C)/C=C/C=C/C=C/1C [Rapamycin] | 19 | insoluble in water | solubility [1, 5]: 22 µg/mL
C/C(=C\c1csc(C)n1)[C@@H]1C[C@@H]2O[C@]2(C)CCC[C@H](C)[C@H](O)[C@@H](C)C(=O)C(C)(C)[C@@H](O)CC(=O)N1 [Ixabepilone] | – | about 3.5 mg/L | solubility [1, 5]: 407 µg/mL
CC(=O)O[C@@]12CO[C@@H]1C[C@H](O)[C@@]1(C)C(=O)[C@H](O)C3=C(C)[C@@H](OC(=O)[C@H](O)[C@@H](NC(=O)OC(C)(C)C)c4ccccc4)C[C@@](O)([C@@H](OC(=O)c4ccccc4)[C@H]21)C3(C)C [Docetaxel] | 114 | about 14 mg/L | –
CO[C@H]1C(=O)[C@]2(C)[C@@H](OC)C[C@H]3OC[C@@]3(OC(C)=O)[C@H]2[C@H](OC(=O)c2ccccc2)[C@]2(O)C[C@H](OC(=O)[C@H](O)[C@@H](NC(=O)OC(C)(C)C)c3ccccc3)C(C)=C1C2(C)C [cabazitaxel] | – | about 8 mg/L | –
CCCCCCC(C)(C)c1cc(O)c2c(c1)OC(C)(C)C1CCC(=O)CC21 (racemic) [Nabilone, (±)-trans-3-(1,1-dimethylheptyl)-6,6a,7,8,10,10a-hexahydro-1-hydroxy-6-6-dimethyl-9H-dibenzo[b,d]pyran-9-one] | – | – | Absorption when administered orally [3]: completely absorbed; Ki (human CB1 receptors): 2.2 nM; Ki (human CB2 receptors): 1.8 nM; Solubility in water ([2]; pH values ranging from 1.2 to 7.0): less than 0.5 mg/L
